We go through four molecules from ChEMBL document CHEMBL1129300, “Conformationally constrained analogues of diacylglycerol. 12. Ultrapotent protein kinase C ligands based on a chiral 4,4-disubstituted heptono-1,4-lactone template” (J Med Chem, 1996).

The assay addresses Protein kinase C alpha type (Homo sapiens, UniProt P17252). Nature of the assay: Displacement of [3H-20]-PDBU from recombinant Protein kinase C alpha.
As to `CCCCCCCC/C=C\CCCCCCCC/C=C1\C[C@@](CO)(COC(C)=O)OC1=O`, the Ki was 13 nM.
Take `CCCCCCCC/C=C\CCCCCCCC/C=C1\C[C@](/C=C/C(=O)OC)(CO)OC1=O`: the Ki worked out at 20 nM.
For `CCCCCCCC/C=C\CCCCCCCC/C=C1/C[C@@](CO)(COC(C)=O)OC1=O` the value was 12 nM; for `CCCCCCCC/C=C\CCCCCCCC/C=C1/C[C@](/C=C/C(=O)OC)(CO)OC1=O`, 11 nM.

The Ki is the equilibrium dissociation constant of an inhibitor or competing ligand from its target.
